Data: patent US12077524B2, “Crystal of pyrrolidine compound” (MITSUBISHI TANABE PHARMA CORPORATION, priority 2018, dated 2024)
Structures can show the parent of a compound that is named as a salt. Where two headings read alike, the source gives them in different places. Blank lines part the entries; values can stand above or below the compound they belong to.

Key:
Assay type in all cases: physicochemical
[1] = Thermal stability evaluation (TG/DTA); conditions: for Thermal stability TG: weight change: 10 K/min, nitrogen
Method: Thermal stability was evaluated by using a thermogravimetry/differential thermal analyzer TG/DTA7200 (SII NanoTechnology Inc.) under the following conditions. • Rate of temperature increase: 10 K/min • Atmosphere: nitrogen 200 mL/min <Hygroscopicity or Deliquescency Evaluation>

[2] = Hygroscopicity or deliquescency evaluation (moisture adsorption, DVS)
Method: Hygroscopicity or deliquescency was evaluated as follows by using a moisture adsorption measurement device DVS-1 or DVS-intrinsic (Surface Measurement Systems Limited). Each sample was placed into a cell of which the tare weight had been corrected in advance, and the cell was hung on the precision balance of said device to precisely measure the weight at the start of measurement. The humidity was changed in a stepwise manner, the weight change was recorded with time, and the equilibrium weight was calculated at each humidity. On the basis of the weight of anhydride converted from the amount of water at a dried condition (0% RH) or at the start of measurement observed by an alternative method, the weight change rate at each humidity was calculated.

[3] = Chemical stability evaluation (storage 1 week, related substances by HPLC, observation of sample)
Method: Each sample was stored at 60° C. under a sealed condition and at 60° C. under 75% RH for 1 week, an increase or decrease of related substances after the storage was calculated by high-performance liquid chromatographic method on the basis of the area percentage of each peak. Also, the condition of each sample after the storage was observed.

Thermal stability TG: weight change ([1]; 30-130° C.): 2.2% | Hygroscopicity or Deliquescency: Weight change under 90% RH [2]: 1.8%
SMILES: COC[C@H]1CN(C(=O)[C@]2(F)CN(C3CCCC3)C[C@H]2c2ccc(OC)cc2)C[C@@H]1c1ccc(C(F)(F)F)cc1N1CCC(C(=O)O)CC1 [Amorphous of free form, 1-{2-[(3S,4R)-1-[(3R,4R)-1-cyclopentyl-3-fluoro-4-(4-methoxyphenyl)pyrrolidine-3-carbonyl]-4-(methoxymethyl)pyrrolidin-3-yl]-5-(trifluoromethyl)phenyl}piperidine-4-carboxylic acid]

Thermal stability TG: weight change ([1]; 30-150° C.): 4.8% | Chemical stability: condition of sample after the storage ([3]; 60° C., 75% RH, 1 week): deliquescent | Deliquescency [2]: deliquescent | Hygroscopicity or Deliquescency: Weight change under 90% RH [2]: 11.87% | Deliquescency ([2]; listed as hydrochloride of the Pyrrolidine compound A): has deliquescency | Hygroscopicity or Deliquescency: observation (deliquescent) ([2]; under 90% RH): deliquescent
SMILES: COC[C@H]1CN(C(=O)[C@]2(F)CN(C3CCCC3)C[C@H]2c2ccc(OC)cc2)C[C@@H]1c1ccc(C(F)(F)F)cc1N1CCC(C(=O)O)CC1 [Amorphous of hydrochloride, 1-{2-[(3S,4R)-1-[(3R,4R)-1-cyclopentyl-3-fluoro-4-(4-methoxyphenyl)pyrrolidine-3-carbonyl]-4-(methoxymethyl)pyrrolidin-3-yl]-5-(trifluoromethyl)phenyl}piperidine-4-carboxylic acid]

Chemical stability [3]: poor
SMILES: COC[C@H]1CN(C(=O)[C@]2(F)CN(C3CCCC3)C[C@H]2c2ccc(OC)cc2)C[C@@H]1c1ccc(C(F)(F)F)cc1N1CCC(C(=O)O)CC1 [Crystal of free form, 1-{2-[(3S,4R)-1-[(3R,4R)-1-cyclopentyl-3-fluoro-4-(4-methoxyphenyl)pyrrolidine-3-carbonyl]-4-(methoxymethyl)pyrrolidin-3-yl]-5-(trifluoromethyl)phenyl}piperidine-4-carboxylic acid]

Thermal stability TG: weight change ([1]; 30-230° C.): No change | Weight change on heating ([1]; even at 200° C. or more): did not show a weight change | Deliquescency ([2]; listed as Phosphoric acid Form B crystal): not deliquescent
SMILES: COC[C@H]1CN(C(=O)[C@]2(F)CN(C3CCCC3)C[C@H]2c2ccc(OC)cc2)C[C@@H]1c1ccc(C(F)(F)F)cc1N1CCC(C(=O)O)CC1 [Present crystal, 1-{2-[(3S,4R)-1-[(3R,4R)-1-cyclopentyl-3-fluoro-4-(4-methoxyphenyl)pyrrolidine-3-carbonyl]-4-(methoxymethyl)pyrrolidin-3-yl]-5-(trifluoromethyl)phenyl}piperidine-4-carboxylic acid]
